Laboratory results taken from patent US20060194837A1, “Tetrahydroisoquinoline compounds” (priority 2004, published 2006).
pKi: −log10 of the molar value. Where two headings read alike, the source gives them in different places.

How the values were obtained:
human SERT = target: T1, human SERT (Homo sapiens, UniProt P31645); assay: Human SERT binding (3H-citalopram displacement); conditions: HEK293 membranes expressing human SERT, rt 1 h
T1 construct: expressed in transfected cells; host or cells: HEK293 membranes
T1 sequence (P31645 whole entry): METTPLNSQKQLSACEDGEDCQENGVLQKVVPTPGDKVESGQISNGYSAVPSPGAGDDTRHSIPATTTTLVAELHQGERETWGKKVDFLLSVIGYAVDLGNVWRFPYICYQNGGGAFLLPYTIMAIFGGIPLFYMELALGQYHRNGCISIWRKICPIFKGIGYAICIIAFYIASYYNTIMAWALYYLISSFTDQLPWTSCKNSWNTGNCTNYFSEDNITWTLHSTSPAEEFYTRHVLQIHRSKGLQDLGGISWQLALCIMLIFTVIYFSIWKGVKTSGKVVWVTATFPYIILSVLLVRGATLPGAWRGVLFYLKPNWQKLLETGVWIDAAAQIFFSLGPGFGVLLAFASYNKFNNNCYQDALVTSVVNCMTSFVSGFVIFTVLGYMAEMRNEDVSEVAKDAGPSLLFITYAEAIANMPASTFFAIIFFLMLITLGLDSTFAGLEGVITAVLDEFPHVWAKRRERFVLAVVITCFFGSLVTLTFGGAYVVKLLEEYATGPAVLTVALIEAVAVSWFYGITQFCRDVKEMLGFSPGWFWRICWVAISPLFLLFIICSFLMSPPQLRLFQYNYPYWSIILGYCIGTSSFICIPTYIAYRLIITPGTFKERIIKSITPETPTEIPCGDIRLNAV
Procedure: Homogenized HEK293 (Human Embryonic Kidney) membranes expressing the human SERT were incubated with ^3H-citalopram (SERT) at rt for 1 h in 50 mM Tris, 120 mM NaCl, 5 mM KCl (pH 7.4). […] The membranes were washed and the radioactivity was counted as above.

Rat SERT = target: T2, Rat SERT (Rattus norvegicus, UniProt P31652); assay: Rat brain SERT binding ([3H]-citalopram displacement); conditions: rat brain membranes without cerebellum, 0.6 nM [3H]-citalopram, 60 min at 25° C.; for pKi: read-out: Rat SERT Ki; for Ki: Rat SERT Ki (nM)
T2 construct: A rat brain without cerebellum (Zivic Laboratories, Inc.—Pittsburgh, Pa.) was homogenized; tissue Zivic Laboratories, Inc; host or cells: rat brain without cerebellum, membranes
T2 sequence (P31652 whole entry): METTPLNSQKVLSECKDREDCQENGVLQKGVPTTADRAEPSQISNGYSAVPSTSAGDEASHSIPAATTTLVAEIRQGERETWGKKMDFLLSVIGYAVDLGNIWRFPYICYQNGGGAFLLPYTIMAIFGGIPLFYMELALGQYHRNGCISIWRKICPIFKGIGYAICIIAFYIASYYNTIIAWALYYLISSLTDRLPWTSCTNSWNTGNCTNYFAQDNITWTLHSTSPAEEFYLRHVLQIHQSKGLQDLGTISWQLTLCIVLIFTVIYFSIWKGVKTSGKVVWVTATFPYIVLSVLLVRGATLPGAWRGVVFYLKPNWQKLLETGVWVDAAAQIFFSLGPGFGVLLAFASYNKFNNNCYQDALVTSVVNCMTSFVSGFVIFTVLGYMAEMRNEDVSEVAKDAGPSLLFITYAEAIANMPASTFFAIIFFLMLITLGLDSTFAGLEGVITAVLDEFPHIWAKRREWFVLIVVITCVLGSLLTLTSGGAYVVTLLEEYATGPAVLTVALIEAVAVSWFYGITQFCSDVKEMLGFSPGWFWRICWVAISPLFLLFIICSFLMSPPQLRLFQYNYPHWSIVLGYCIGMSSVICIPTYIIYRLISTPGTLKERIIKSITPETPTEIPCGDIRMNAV
Procedure: The supernatant was removed and re-centrifuged at 15,000 rpm for 30 min. […] Membranes were incubated with 0.6 nM [^3H]-Citalopram plus/minus test compounds for 60 min at 25° C. and harvested by rapid filtration over GF/C glass fiber filters (pretreated with 0.3% polyethylenimine) followed by four washes with ice-cold buffer.

human H3 receptor = target: T3, human H3 receptor (Homo sapiens, UniProt Q9Y5N1); assay: H3 receptor binding (N-[3H]-α-methylhistamine displacement); conditions: membranes of SK-N-MC cells expressing cloned human H3 receptor, 0.8 nM N-[3H]-α-methylhistamine, 60 min at 25° C.
T3 construct: expressed in transfected cells
T3 sequence (Q9Y5N1 whole entry): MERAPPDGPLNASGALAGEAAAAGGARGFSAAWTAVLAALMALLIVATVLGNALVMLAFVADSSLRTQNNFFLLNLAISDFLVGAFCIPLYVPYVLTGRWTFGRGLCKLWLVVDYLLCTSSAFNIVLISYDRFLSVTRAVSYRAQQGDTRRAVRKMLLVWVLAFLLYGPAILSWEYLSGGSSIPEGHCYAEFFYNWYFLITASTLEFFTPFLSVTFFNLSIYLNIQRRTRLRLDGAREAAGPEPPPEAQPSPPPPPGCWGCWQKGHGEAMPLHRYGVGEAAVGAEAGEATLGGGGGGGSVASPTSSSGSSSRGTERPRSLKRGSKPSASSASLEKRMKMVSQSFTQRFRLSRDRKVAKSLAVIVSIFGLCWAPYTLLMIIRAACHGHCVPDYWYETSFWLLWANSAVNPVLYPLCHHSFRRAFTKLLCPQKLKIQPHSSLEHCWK

Question: How did the pKi (human SERT) turn out when `CCN1CCOC(COc2ccc3c(c2)CN(C)CC3c2ccc(OC)cc2)C1` (mixture of isomers) [Example 257, 7-(4-Ethyl-morpholin-2-ylmethoxy)-4-(4-methoxy-phenyl)-2-methyl-1,2,3,4-tetrahydro-isoquinoline] was run?
Answer: 7.96

Question: And the pKi (Rat SERT)?
Answer: 8.10

Question: What about the pKi (human H3 receptor) of the same compound?
Answer: 7.96

Question: Which results are given for `COc1ccc(C2CN(C)Cc3cc(OCC4CN(C5CC5)CCO4)ccc32)cc1` (mixture of isomers) [Example 259, 7-(4-Cyclopropyl-morpholin-2-ylmethoxy)-4-(4-methoxy-phenyl)-2-methyl-1,2,3,4-tetrahydro-isoquinoline]?
Answer: pKi (human SERT): 7.66; pKi (Rat SERT): 7.89; pKi (human H3 receptor): 7.89

Question: Which results are given for `COc1ccc(C2CN(C)Cc3cc(OCCCN4CCC(F)CC4)ccc32)cc1` (racemic) [Example 1, 7-[3-(4-Fluoro-piperidin-1-yl)-propoxy]-4-(4-methoxy-phenyl)-2-methyl-1,2,3,4-tetrahydro-isoquinoline]?
Answer: pKi (human SERT): 8.52; pKi (Rat SERT): 8.70

Question: `COc1ccc(C2CN(C)Cc3cc(OCCCN4CCCC(F)(F)C4)ccc32)cc1` (racemic) [Example 29, 7-[3-(3,3-Difluoro-piperidin-1-yl)-propoxy]-4-(4-methoxy-phenyl)-2-methyl-1,2,3,4-tetrahydro-isoquinoline] was tested. Which pKi (human SERT) did it give?
Answer: 8.10

Question: What about the pKi (Rat SERT) of the same compound?
Answer: 7.85

Question: With `COc1ccc(C2CN(C)Cc3cc(OCCCN4CCC(F)CC4)ccc32)cc1F` (racemic) [Example 142, 4-(3-Fluoro-4-methoxy-phenyl)-7-[3-(4-fluoro-piperidin-1-yl)-propoxy]-2-methyl-1,2,3,4-tetrahydro-isoquinoline] as the compound, how does the pKi (human SERT) read?
Answer: 8.15

Question: And the pKi (Rat SERT)?
Answer: 8.40

Question: And the pKi (human H3 receptor)?
Answer: 8.52

Question: With `COc1ccc(C2CN(C)Cc3cc(OCCCN4CCC(F)CC4)ccc32)cc1` (single isomer, unassigned) [Example 1A, 7-[3-(4-Fluoro-piperidin-1-yl)-propoxy]-4-(4-methoxy-phenyl)-2-methyl-1,2,3,4-tetrahydro-isoquinoline] as the compound, how does the pKi (human SERT) read?
Answer: 8.05

Question: And the pKi (Rat SERT)?
Answer: 8.22

Question: Which results are given for `COc1ccc(C2CN(C)Cc3cc(OCCCN4CCC(F)CC4)ccc32)cc1` (single isomer, unassigned) [Example 1B, 7-[3-(4-Fluoro-piperidin-1-yl)-propoxy]-4-(4-methoxy-phenyl)-2-methyl-1,2,3,4-tetrahydro-isoquinoline]?
Answer: pKi (human SERT): 8.52; pKi (Rat SERT): 8.70

Question: With `COc1ccc(C2CN(C)Cc3cc(OCCCN4CCCC(F)(F)C4)ccc32)cc1` (single isomer, unassigned) [Example 29A, 7-[3-(3,3-Difluoro-piperidin-1-yl)-propoxy]-4-(4-methoxy-phenyl)-2-methyl-1,2,3,4-tetrahydro-isoquinoline] as the compound, how does the pKi (human SERT) read?
Answer: 7.89

Question: With `COc1ccc(C2CN(C)Cc3cc(OCCCN4CCCC(F)(F)C4)ccc32)cc1` (single isomer, unassigned) [Example 29B, 7-[3-(3,3-Difluoro-piperidin-1-yl)-propoxy]-4-(4-methoxy-phenyl)-2-methyl-1,2,3,4-tetrahydro-isoquinoline] as the compound, how does the pKi (human SERT) read?
Answer: 8.22

Question: What about the pKi (Rat SERT) of the same compound?
Answer: 8.10

Question: With `COc1ccc(C2CN(C)Cc3cc(OCCCN4CCC(C#N)CC4)ccc32)cc1` (single isomer, unassigned) [Example 37A, 1-{3-[4-(4-Methoxy-phenyl)-2-methyl-1,2,3,4-tetrahydro-isoquinolin-7-yloxy]-propyl}-piperidine-4-carbonitrile] as the compound, how does the pKi (human SERT) read?
Answer: 7.89

Question: What about the pKi (Rat SERT) of the same compound?
Answer: 8.05

Question: And the pKi (human H3 receptor)?
Answer: 7.05

Question: With `CSc1ccc(C2CN(C)Cc3cc(OCCCN4CCC(F)CC4)ccc32)cc1` (single isomer, unassigned) [Example 153, 7-[3-(4-Fluoro-piperidin-1-yl)-propoxy]-2-methyl-4-(4-methylsulfanyl-phenyl)-1,2,3,4-tetrahydro-isoquinoline] as the compound, how does the pKi (human SERT) read?
Answer: 8.70

Question: And the Ki (Rat SERT)?
Answer: 2 nM

Question: `CSc1ccc(C2CN(C)Cc3cc(OCCCN4CCC(F)CC4)ccc32)cc1` (single isomer, unassigned) [Example 154, 7-[3-(4-Fluoro-piperidin-1-yl)-propoxy]-2-methyl-4-(4-methylsulfanyl-phenyl)-1,2,3,4-tetrahydro-isoquinoline] was tested. Which pKi (human SERT) did it give?
Answer: 8.40

Question: What about the Ki (Rat SERT) of the same compound?
Answer: 5 nM

Question: `COc1ccc(C2CN(C)Cc3cc(OCCCN4CCN(C(C)=O)CC4)ccc32)cc1` (stereo not shown) [Example 2, 1-(4-{3-[4-(4-Methoxy-phenyl)-2-methyl-1,2,3,4-tetrahydro-isoquinolin-7-yloxy]-propyl}-piperazin-1-yl)-ethanone] was tested. Which pKi (human SERT) did it give?
Answer: 7.25

Question: And the pKi (Rat SERT)?
Answer: 7.89

Question: What about the pKi (human H3 receptor) of the same compound?
Answer: 7.15

Question: With `COc1ccc(C2CN(C)Cc3cc(OCCCN4CCN(C(=O)c5ccncc5)CC4)ccc32)cc1` (stereo not shown) [Example 4, (4-{3-[4-(4-Methoxy-phenyl)-2-methyl-1,2,3,4-tetrahydro-isoquinolin-7-yloxy]-propyl}-piperazin-1-yl)-pyridin-4-yl-methanone] as the compound, how does the pKi (human SERT) read?
Answer: 7.68

Question: What about the pKi (Rat SERT) of the same compound?
Answer: 7.48

Question: And the pKi (human H3 receptor)?
Answer: 5.40

Question: `COc1ccc(C2CN(C)Cc3cc(OCCCN4CCN(C(=O)C(C)C)CC4)ccc32)cc1` (stereo not shown) [Example 5, 1-(4-{3-[4-(4-Methoxy-phenyl)-2-methyl-1,2,3,4-tetrahydro-isoquinolin-7-yloxy]-propyl}-piperazin-1-yl)-2-methyl-propan-1-one] was tested. Which pKi (human SERT) did it give?
Answer: 7.74

Question: And the pKi (Rat SERT)?
Answer: 7.57

Question: And the pKi (human H3 receptor)?
Answer: 6.23

Question: `COc1ccc(C2CN(C)Cc3cc(OCCCN4CCN(C(=O)C5CCC5)CC4)ccc32)cc1` (stereo not shown) [Example 6, Cyclobutyl-(4-{3-[4-(4-methoxy-phenyl)-2-methyl-1,2,3,4-tetrahydro-isoquinolin-7-yloxy]-propyl}-piperazin-1-yl)-methanone] was tested. Which pKi (human SERT) did it give?
Answer: 7.82

Question: And the pKi (Rat SERT)?
Answer: 7.82

Question: And the pKi (human H3 receptor)?
Answer: 6.27

Question: With `COc1ccc(C2CN(C)Cc3cc(OCCCN4CCN(C(=O)C5CC5)CC4)ccc32)cc1` (stereo not shown) [Example 7, Cyclopropyl-(4-{3-[4-(4-methoxy-phenyl)-2-methyl-1,2,3,4-tetrahydro-isoquinolin-7-yloxy]-propyl}-piperazin-1-yl)-methanone] as the compound, how does the pKi (human SERT) read?
Answer: 7.85

Question: What about the pKi (Rat SERT) of the same compound?
Answer: 7.85

Question: And the pKi (human H3 receptor)?
Answer: 6.50

Question: `CCOC(=O)N1CCN(CCCOc2ccc3c(c2)CN(C)CC3c2ccc(OC)cc2)CC1` (stereo not shown) [Example 12, 4-{3-[4-(4-Methoxy-phenyl)-2-methyl-1,2,3,4-tetrahydro-isoquinolin-7-yloxy]-propyl}-piperazine-1-carboxylic acid ethyl ester] was tested. Which pKi (human SERT) did it give?
Answer: 7.80

Question: And the pKi (Rat SERT)?
Answer: 8.22

Question: And the pKi (human H3 receptor)?
Answer: 7.23

Question: `COc1ccc(C2CN(C)Cc3cc(OCCCN4CCN(C(=O)c5cccn5C)CC4)ccc32)cc1` (stereo not shown) [Example 13, (4-{3-[4-(4-Methoxy-phenyl)-2-methyl-1,2,3,4-tetrahydro-isoquinolin-7-yloxy]-propyl}-piperazin-1-yl)-(1-methyl-1H-pyrrol-2-yl)-methanone] was tested. Which pKi (human SERT) did it give?
Answer: 7.96

Question: What about the pKi (Rat SERT) of the same compound?
Answer: 8.00

Question: And the pKi (human H3 receptor)?
Answer: 5.62

Question: Which results are given for `COc1ccc(C2CN(C)Cc3cc(OCCCN4CCN(C(=O)c5cn(C)cn5)CC4)ccc32)cc1` (stereo not shown) [Example 14, (4-{3-[4-(4-Methoxy-phenyl)-2-methyl-1,2,3,4-tetrahydro-isoquinolin-7-yloxy]-propyl}-piperazin-1-yl)-(1-methyl-1H-imidazol-4-yl)-methanone]?
Answer: pKi (human SERT): 7.74; pKi (Rat SERT): 7.72; pKi (human H3 receptor): 5.70

Question: `COCCN(CCCOc1ccc2c(c1)CN(C)CC2c1ccc(OC)cc1)CCOC` (stereo not shown) [Example 17, Bis-(2-methoxy-ethyl)-{3-[4-(4-methoxy-phenyl)-2-methyl-1,2,3,4-tetrahydro-isoquinolin-7-yloxy]-propyl}-amine] was tested. Which pKi (human SERT) did it give?
Answer: 8.15

Question: What about the pKi (Rat SERT) of the same compound?
Answer: 8.00

Question: And the pKi (human H3 receptor)?
Answer: 6.56

Question: With `COc1ccc(C2CN(C)Cc3cc(OCCCN4CCC(CO)CC4)ccc32)cc1` (stereo not shown) [Example 22, (1-{3-[4-(4-Methoxy-phenyl)-2-methyl-1,2,3,4-tetrahydro-isoquinolin-7-yloxy]-propyl}-piperidin-4-yl)-methanol] as the compound, how does the pKi (human SERT) read?
Answer: 8.30

Question: And the pKi (Rat SERT)?
Answer: 8.52

Question: And the pKi (human H3 receptor)?
Answer: 7.96

Question: With `COc1ccc(C2CN(C)Cc3cc(OCCCN4CCC4)ccc32)cc1` (stereo not shown) [Example 34, 7-(3-Azetidin-1-yl-propoxy)-4-(4-methoxy-phenyl)-2-methyl-1,2,3,4-tetrahydro-isoquinoline] as the compound, how does the pKi (human SERT) read?
Answer: 8.40

Question: What about the pKi (Rat SERT) of the same compound?
Answer: 7.96

Question: How did the pKi (human SERT) turn out when `CN1Cc2cc(OCCCN3CCC(F)CC3)ccc2C(c2ccc(S(C)(=O)=O)cc2)C1` (stereo not shown) [Example 51, 7-[3-(4-Fluoro-piperidin-1-yl)-propoxy]-4-(4-methanesulfonyl-phenyl)-2-methyl-1,2,3,4-tetrahydro-isoquinoline] was run?
Answer: 6.99

Question: And the pKi (Rat SERT)?
Answer: 7.47

Question: What does the source list for `CSc1ccc(C2CN(C)Cc3cc(OCCCN4CCC(F)CC4)ccc32)cc1` (stereo not shown) [Example 52, 7-[3-(4-Fluoro-piperidin-1-yl)-propoxy]-2-methyl-4-(4-methylsulfanyl-phenyl)-1,2,3,4-tetrahydro-isoquinoline]?
Answer: pKi (human SERT): 8.70; pKi (Rat SERT): 8.52

Question: With `COc1ccc(C2CN(C)Cc3cc(OCCCN4CCC(F)CC4)ccc32)cc1Cl` (stereo not shown) [Example 53, 4-(3-Chloro-4-methoxy-phenyl)-7-[3-(4-fluoro-piperidin-1-yl)-propoxy]-2-methyl-1,2,3,4-tetrahydro-isoquinoline] as the compound, how does the pKi (human SERT) read?
Answer: 8.40

Question: And the pKi (Rat SERT)?
Answer: 8.30

Question: How did the pKi (human SERT) turn out when `COc1cccc(C2CN(C)Cc3cc(OCC4CCNCC4)ccc32)c1` (stereo not shown) [Example 241, 4-(3-Methoxy-phenyl)-2-methyl-7-(piperidin-4-ylmethoxy)-1,2,3,4-tetrahydro-isoquinoline] was run?
Answer: 8.00

Question: What about the pKi (human H3 receptor) of the same compound?
Answer: 7.41
